Source: PMC4685510, “A Cell Biologist’s Field Guide to Aurora Kinase Inhibitors” (Frontiers in Oncology, 2015)

Columns and labels:
Test in all cases: biochemical
Type in all cases: biochemical
[1] = target: 363 human kinases (including Aurora A/B/C) (Homo sapiens, UniProt P53671); settings: LIMK2; for remaining activity at 0.1 µM: 100 nM; for remaining activity at 0.1 µM / remaining activity at 0.5 µM: read-out: % Enzyme Activity (relative to DMSO controls)
Text: (§1) However, the Aurora A/B selectivity ratios derived from our in vitro and in vivo data can be compared to prioritize inhibitors.

[2] = target: 363 human kinases (including Aurora A/B/C) (Homo sapiens, UniProt Q15418); settings: RSK1; for remaining activity at 0.1 µM: 100 nM; for remaining activity at 0.1 µM / remaining activity at 0.5 µM: read-out: % Enzyme Activity (relative to DMSO controls)
Chain of 363 human kinases (including Aurora A/B/C) (Homo sapiens, UniProt Q15418) (Q15418 whole entry): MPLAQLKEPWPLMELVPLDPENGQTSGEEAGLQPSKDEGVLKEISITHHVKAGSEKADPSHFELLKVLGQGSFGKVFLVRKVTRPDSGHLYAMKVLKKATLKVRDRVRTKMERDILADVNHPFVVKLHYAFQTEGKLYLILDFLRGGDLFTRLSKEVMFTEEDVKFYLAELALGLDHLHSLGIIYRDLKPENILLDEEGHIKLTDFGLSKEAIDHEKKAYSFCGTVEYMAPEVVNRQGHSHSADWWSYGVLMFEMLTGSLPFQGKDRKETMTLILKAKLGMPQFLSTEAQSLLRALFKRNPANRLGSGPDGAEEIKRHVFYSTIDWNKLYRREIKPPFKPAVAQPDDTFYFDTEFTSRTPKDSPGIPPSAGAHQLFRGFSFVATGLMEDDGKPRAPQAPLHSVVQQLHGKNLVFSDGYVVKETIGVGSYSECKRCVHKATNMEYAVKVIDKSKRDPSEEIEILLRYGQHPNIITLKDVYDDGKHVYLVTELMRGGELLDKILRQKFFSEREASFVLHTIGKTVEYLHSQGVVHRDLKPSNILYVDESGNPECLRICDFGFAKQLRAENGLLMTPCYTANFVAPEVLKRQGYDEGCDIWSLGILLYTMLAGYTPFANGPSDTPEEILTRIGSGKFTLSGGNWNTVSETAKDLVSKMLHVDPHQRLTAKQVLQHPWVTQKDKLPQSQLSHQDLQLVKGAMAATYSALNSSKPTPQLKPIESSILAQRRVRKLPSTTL
Text: as §1

[3] = target: 363 human kinases (including Aurora A/B/C) (Homo sapiens, UniProt P08581); settings: c-MET, [ATP] 30 µM; for remaining activity at 0.1 µM: 100 nM; for remaining activity at 0.1 µM / remaining activity at 0.5 µM: read-out: % Enzyme Activity (relative to DMSO controls)
Chain of 363 human kinases (including Aurora A/B/C) (Homo sapiens, UniProt P08581) (P08581 25-1390): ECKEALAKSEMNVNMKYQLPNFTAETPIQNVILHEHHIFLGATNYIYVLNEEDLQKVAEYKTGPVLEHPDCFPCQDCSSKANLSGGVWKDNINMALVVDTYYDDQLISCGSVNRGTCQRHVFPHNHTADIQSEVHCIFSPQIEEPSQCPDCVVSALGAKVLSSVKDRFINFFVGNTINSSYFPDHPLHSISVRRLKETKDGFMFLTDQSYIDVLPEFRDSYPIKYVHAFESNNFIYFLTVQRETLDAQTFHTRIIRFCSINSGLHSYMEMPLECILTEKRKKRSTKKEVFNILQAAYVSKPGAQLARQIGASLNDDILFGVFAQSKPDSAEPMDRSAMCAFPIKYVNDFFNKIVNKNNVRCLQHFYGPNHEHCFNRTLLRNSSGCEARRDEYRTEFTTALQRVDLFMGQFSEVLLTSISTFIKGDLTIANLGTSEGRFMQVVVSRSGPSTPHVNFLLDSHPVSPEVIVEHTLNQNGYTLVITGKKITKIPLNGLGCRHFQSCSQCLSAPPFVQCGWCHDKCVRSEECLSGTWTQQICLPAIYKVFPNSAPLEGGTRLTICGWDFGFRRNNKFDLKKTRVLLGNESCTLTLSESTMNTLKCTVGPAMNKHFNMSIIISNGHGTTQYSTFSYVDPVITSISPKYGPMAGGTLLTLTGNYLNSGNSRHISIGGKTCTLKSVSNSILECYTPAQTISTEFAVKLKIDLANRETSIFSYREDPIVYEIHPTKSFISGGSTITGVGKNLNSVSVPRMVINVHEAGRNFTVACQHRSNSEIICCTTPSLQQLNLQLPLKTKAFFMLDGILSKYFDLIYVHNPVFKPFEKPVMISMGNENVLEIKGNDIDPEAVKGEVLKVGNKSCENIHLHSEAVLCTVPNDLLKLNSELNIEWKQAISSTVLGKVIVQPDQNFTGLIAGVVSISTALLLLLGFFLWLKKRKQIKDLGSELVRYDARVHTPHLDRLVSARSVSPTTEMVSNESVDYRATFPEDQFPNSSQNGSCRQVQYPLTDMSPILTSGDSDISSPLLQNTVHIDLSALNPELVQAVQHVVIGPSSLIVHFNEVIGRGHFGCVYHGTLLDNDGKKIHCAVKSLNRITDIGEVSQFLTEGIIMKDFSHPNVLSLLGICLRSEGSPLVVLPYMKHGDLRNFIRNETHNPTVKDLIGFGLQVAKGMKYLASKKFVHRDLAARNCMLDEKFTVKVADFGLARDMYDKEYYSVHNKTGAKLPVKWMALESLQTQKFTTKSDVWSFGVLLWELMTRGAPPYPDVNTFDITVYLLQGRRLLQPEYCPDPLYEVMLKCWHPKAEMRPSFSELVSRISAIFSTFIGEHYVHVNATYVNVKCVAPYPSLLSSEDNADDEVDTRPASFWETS
Text: as §1

[4] = target: 363 human kinases (including Aurora A/B/C) (Homo sapiens, UniProt Q15208); settings: STK38/NDR1; for remaining activity at 0.1 µM: 100 nM; for remaining activity at 0.1 µM / remaining activity at 0.5 µM: read-out: % Enzyme Activity (relative to DMSO controls)
Chain of 363 human kinases (including Aurora A/B/C) (Homo sapiens, UniProt Q15208) (Q15208 whole entry): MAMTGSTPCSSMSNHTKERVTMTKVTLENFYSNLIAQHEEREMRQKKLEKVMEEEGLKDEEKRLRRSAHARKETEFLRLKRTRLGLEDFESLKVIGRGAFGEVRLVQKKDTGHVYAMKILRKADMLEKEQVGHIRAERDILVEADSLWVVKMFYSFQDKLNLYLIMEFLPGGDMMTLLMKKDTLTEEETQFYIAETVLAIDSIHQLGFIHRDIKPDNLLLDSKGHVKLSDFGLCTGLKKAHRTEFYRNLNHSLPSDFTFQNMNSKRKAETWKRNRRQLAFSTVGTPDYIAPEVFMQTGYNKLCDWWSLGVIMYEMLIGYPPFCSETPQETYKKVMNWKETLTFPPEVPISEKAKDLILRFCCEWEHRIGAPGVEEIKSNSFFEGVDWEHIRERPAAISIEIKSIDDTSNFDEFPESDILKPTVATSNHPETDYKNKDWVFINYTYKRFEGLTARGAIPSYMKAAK
Text: as §1

[5] = target: T1, 363 human kinases (including Aurora A/B/C) (Homo sapiens, UniProt O95835); settings: LATS1; for remaining activity at 0.1 µM: 100 nM; for remaining activity at 0.1 µM / remaining activity at 0.5 µM: read-out: % Enzyme Activity (relative to DMSO controls)
T1 sequence (O95835 1-1130): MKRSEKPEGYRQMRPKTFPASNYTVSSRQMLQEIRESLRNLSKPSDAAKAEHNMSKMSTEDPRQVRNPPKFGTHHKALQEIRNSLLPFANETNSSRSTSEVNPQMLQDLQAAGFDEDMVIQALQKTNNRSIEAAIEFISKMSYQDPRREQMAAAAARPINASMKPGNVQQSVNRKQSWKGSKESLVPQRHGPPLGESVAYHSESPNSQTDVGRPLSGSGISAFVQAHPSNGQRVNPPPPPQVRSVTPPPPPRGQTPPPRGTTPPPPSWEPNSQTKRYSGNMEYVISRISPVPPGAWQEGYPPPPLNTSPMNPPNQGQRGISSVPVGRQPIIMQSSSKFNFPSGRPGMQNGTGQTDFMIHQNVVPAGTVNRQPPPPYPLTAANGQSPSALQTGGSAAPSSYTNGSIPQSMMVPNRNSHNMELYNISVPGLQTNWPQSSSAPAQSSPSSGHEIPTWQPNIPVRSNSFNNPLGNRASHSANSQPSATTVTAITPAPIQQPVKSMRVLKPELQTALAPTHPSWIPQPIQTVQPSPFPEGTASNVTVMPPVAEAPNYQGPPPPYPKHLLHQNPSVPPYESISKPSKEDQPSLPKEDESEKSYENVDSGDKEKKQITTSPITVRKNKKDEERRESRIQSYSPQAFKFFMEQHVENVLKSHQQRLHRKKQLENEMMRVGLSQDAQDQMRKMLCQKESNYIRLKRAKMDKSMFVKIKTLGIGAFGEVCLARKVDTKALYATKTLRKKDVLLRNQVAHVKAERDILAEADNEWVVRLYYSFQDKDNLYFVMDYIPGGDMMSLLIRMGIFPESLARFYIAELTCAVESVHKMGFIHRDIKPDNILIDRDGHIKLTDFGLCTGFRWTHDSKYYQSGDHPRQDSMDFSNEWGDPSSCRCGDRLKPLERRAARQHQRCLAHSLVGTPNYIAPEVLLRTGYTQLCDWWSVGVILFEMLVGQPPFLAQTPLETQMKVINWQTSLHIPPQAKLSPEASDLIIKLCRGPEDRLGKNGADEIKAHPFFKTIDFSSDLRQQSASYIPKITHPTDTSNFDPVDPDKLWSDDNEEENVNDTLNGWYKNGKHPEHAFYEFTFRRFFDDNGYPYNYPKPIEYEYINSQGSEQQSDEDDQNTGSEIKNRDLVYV
Text: as §1

[6] = target: 363 human kinases (including Aurora A/B/C) (Homo sapiens, UniProt P49760); settings: CLK2, [ATP] 50 µM; for remaining activity at 0.1 µM: 100 nM; for remaining activity at 0.1 µM / remaining activity at 0.5 µM: read-out: % Enzyme Activity (relative to DMSO controls)
Chain of 363 human kinases (including Aurora A/B/C) (Homo sapiens, UniProt P49760) (P49760 whole entry): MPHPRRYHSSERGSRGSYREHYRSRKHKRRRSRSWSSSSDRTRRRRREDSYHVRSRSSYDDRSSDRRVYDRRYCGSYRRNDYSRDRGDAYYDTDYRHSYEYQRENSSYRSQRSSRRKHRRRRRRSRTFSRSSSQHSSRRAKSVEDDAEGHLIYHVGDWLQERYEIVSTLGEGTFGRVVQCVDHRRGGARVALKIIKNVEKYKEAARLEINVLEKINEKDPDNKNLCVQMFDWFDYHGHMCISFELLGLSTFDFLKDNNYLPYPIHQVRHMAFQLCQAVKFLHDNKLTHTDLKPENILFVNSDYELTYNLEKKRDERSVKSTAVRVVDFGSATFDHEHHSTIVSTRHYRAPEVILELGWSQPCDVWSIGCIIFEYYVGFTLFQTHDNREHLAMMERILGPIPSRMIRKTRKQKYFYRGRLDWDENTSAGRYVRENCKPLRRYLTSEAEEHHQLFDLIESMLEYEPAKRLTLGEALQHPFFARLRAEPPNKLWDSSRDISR
Text: as §1

[7] = target: 363 human kinases (including Aurora A/B/C) (Homo sapiens, UniProt Q86Y07); settings: VRK2; for remaining activity at 0.1 µM: 100 nM; for remaining activity at 0.1 µM / remaining activity at 0.5 µM: read-out: % Enzyme Activity (relative to DMSO controls)
Chain of 363 human kinases (including Aurora A/B/C) (Homo sapiens, UniProt Q86Y07) (Q86Y07 whole entry): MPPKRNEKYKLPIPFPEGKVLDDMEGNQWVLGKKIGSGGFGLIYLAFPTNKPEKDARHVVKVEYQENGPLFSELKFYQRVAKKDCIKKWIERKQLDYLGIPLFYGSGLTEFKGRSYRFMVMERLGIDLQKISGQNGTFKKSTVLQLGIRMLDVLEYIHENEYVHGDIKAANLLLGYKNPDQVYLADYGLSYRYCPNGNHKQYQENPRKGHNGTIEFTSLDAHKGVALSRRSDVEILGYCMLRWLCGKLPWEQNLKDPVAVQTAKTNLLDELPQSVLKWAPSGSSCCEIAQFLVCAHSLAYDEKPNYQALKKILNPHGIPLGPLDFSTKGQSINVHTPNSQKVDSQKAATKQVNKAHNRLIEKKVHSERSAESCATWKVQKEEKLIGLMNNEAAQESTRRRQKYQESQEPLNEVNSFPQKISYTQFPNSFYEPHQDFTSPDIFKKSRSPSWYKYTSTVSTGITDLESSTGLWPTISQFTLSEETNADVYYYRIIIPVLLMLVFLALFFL
Text: as §1

[8] = target: T2, 363 human kinases (including Aurora A/B/C) (Homo sapiens, UniProt Q9UPZ9); settings: LCK2/ICK; for remaining activity at 0.1 µM: 100 nM; for remaining activity at 0.1 µM / remaining activity at 0.5 µM: read-out: % Enzyme Activity (relative to DMSO controls)
T2 sequence (Q9UPZ9 1-632): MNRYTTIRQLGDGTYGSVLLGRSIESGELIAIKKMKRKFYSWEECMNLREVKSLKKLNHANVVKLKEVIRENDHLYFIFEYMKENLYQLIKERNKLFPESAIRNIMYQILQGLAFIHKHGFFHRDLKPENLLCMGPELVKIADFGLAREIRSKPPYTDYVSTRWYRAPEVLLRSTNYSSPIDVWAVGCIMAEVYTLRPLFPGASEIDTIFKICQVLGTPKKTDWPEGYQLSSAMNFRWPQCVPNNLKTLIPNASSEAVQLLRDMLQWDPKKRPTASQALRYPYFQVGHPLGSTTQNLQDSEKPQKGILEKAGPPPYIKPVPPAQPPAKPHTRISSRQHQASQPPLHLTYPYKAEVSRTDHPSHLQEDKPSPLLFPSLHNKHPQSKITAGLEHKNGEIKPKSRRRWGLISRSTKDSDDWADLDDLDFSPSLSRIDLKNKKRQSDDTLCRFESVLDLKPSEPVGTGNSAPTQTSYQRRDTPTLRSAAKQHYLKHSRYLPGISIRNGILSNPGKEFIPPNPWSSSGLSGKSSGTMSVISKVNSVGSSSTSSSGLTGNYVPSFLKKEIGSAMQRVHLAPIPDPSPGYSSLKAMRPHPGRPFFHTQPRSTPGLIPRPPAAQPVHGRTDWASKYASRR
Text: as §1

Chain of 363 human kinases (including Aurora A/B/C) (Homo sapiens, UniProt P53671) (P53671 whole entry): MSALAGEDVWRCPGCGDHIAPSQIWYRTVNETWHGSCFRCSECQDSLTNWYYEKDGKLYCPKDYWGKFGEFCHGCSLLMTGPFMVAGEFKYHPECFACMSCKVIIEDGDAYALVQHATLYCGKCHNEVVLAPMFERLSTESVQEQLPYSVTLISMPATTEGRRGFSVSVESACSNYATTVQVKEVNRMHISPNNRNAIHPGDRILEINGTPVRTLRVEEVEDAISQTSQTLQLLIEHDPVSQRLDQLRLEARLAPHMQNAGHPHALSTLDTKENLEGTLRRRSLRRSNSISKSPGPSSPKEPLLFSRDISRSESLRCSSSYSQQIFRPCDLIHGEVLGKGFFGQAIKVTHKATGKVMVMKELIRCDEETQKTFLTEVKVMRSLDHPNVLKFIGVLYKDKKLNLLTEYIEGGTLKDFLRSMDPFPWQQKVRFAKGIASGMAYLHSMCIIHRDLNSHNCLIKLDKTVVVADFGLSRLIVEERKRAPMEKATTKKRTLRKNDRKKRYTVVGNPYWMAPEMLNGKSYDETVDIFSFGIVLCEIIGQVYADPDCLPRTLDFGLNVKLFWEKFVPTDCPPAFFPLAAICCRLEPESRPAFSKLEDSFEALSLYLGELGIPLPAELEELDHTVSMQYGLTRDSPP

Compound | remaining activity at 0.1 µM [1] | remaining activity at 0.1 µM [2] | remaining activity at 0.1 µM [3] | remaining activity at 0.1 µM [4] | remaining activity at 0.1 µM [5] | remaining activity at 0.1 µM [6] | remaining activity at 0.1 µM [7] | remaining activity at 0.1 µM [8] | remaining activity at 0.5 µM ([1]; 500 nM) | remaining activity at 0.5 µM ([2]; 500 nM) | remaining activity at 0.5 µM ([3]; 500 nM) | remaining activity at 0.5 µM ([4]; 500 nM) | remaining activity at 0.5 µM ([5]; 500 nM) | remaining activity at 0.5 µM ([6]; 500 nM) | remaining activity at 0.5 µM ([7]; 500 nM) | remaining activity at 0.5 µM ([8]; 500 nM) | further results
CCn1cc(-c2ccnc3[nH]c(-c4cccc(CN(C)C)c4)cc23)c(-c2ccc(NC(=O)N(C)C)cc2)n1 [GSK1070916] | 103% | 90% | 84.8% | 88% | 97.5% | 93.6% | 106% | 97.6% |  |  |  |  |  |  |  |  | 
O=C(O)[C@]1(Cc2cccc(Nc3nccs3)n2)CC[C@@H](Oc2cccc(Cl)c2F)CC1 [MK-5108] | 92.8% | 99.1% | 74.5% | 96% | 98.5% | 72.9% | 114% | 99% | 76.2% | 91.2% | 50.3% | 86.5% | 94.1% | 25.4% | 91.7% | 92.3% | 
O=C(c1cccc(Cl)c1F)N1CCN(Cc2cccc(Nc3nccs3)n2)CC1 [MK-8745] |  |  |  |  |  |  |  |  | 98.4% | 95.8% | 77.2% | 91.2% | 96.8% | 99% | 107% | 93% | % Enzyme Activity (relative to DMSO controls) ([1]; 500 nM): 97.95%; % Enzyme Activity (relative to DMSO controls) ([2]; 500 nM): 93.60%; % Enzyme Activity (relative to DMSO controls) ([3]; 500 nM): 76.29%; % Enzyme Activity (relative to DMSO controls) ([4]; 500 nM): 90.44%; % Enzyme Activity (relative to DMSO controls) ([5]; 500 nM): 96.46%; % Enzyme Activity (relative to DMSO controls) ([6]; 500 nM): 95.24%; % Enzyme Activity (relative to DMSO controls) ([7]; 500 nM): 103.85%; % Enzyme Activity (relative to DMSO controls) ([8]; 500 nM): 91.96%
